{"source": "patent US6909001B2", "about": "(Pharmacia Corporation, priority 2002, dated 2005)", "key": {"[1]": {"system": "LPS-induced TNFα production", "assay": "Lipopolysaccharide (LPS)-Induced TNFα Production (Rat LPS Assay)", "assay_type": "in vivo", "details": "at 20 mpk (IP)"}, "MK-2": {"system": "MK-2", "details": "cited from earlier work"}, "endotoxin-induced shock": {"system": "endotoxin-induced shock", "details": "murine model of endotoxin-induced shock; cited from earlier work"}, "[2]": {"system": "collagen-induced arthritis", "details": "mouse; cited from earlier work"}, "adjuvant arthritis": {"system": "adjuvant arthritis", "details": "rat; cited from earlier work"}, "granulomas": {"system": "granulomas", "details": "laboratory rats; cited from earlier work"}}}
{"smiles": "N#Cc1c(N)nc2c(c1N)Cc1ccc(OCCN)cc1O2", "note": "[Example 12, 2,4-diamino-8-(2-aminoethoxy)-5H-chromeno[2,3-b]pyridine-3-carbonitrile]", "values": [{"measurement": "Rat LPS Assay inhibition", "setting": "[1]", "result": 88, "unit": "%"}]}
{"smiles": "C[S+]([O-])c1ccc(-c2nc(-c3ccncc3)c(-c3ccc(F)cc3)[nH]2)cc1", "note": "(stereo not drawn) [SB203580]", "values": [{"measurement": "inhibition of activation of MK-2", "setting": "MK-2", "result": "inhibit activation of MK-2"}, {"measurement": "mortality", "setting": "endotoxin-induced shock", "result": "reduce mortality"}, {"measurement": "development of collagen-induced arthritis", "setting": "[2]", "result": "inhibit the development"}, {"measurement": "development of adjuvant arthritis", "setting": "adjuvant arthritis", "result": "inhibit the development"}]}
{"smiles": "Nc1nccc(-c2c(-c3ccc(F)cc3)ncn2C2CCNCC2)n1", "note": "[SB 220025]", "values": [{"measurement": "vascular density of granulomas", "setting": "granulomas", "result": "significant dose-dependent decrease in vascular density of granulomas"}]}
